Key:
[1] = Survival of human H209 cells at 1 uM under deem light after 96 hrs by MTT assay relative to control; type: functional; details: NCI-H209, 96 h, read-out: Survival
[2] = Photohemolysis in human RBC assessed as concentration required to 50% hemolysis under light exposure for 10 mins; type: ADME, cell-based, Erythrocyte; details: human red blood cells, read-out: Activity
HeLa [3] = test: Survival of human HeLa cells at 1 uM under deem light after 96 hrs by MTT assay relative to control; type: functional; details: read-out: Survival
K562 [4] = test: Survival of human K562 cells at 0.1 uM under deem light after 96 hrs by MTT assay relative to control; type: functional; details: K562, 96 h, read-out: Survival
[5] = Survival of human MDA-MB cells at 100 uM under deem light after 96 hrs by MTT assay relative to control; type: functional; details: read-out: Survival
NCI-H69 [6] = test: Cytotoxicity against human H69 cells under deem light after 96 hrs by MTT assay; type: functional, cell-based; details: NCI-H69, 96 h
SiHa [7] = test: Survival of human SIHA cells at 10 uM under deem light after 96 hrs by MTT assay relative to control; type: functional; details: read-out: Survival
SiHa [8] = test: Cytotoxicity against human SIHA cells under deem light after 96 hrs by MTT assay; type: functional, cell-based
[9] = Photohemolysis in human RBC in absence of light; type: ADME, cell-based; details: erythrocyte
Raji [10] = test: Survival of human Raji cells at 1 uM under deem light after 96 hrs by MTT assay relative to control; type: functional; details: read-out: Survival
Raji [11] = test: Survival of human Raji cells at 0.1 uM under deem light after 96 hrs by MTT assay relative to control; type: functional; details: read-out: Survival
Raji [12] = test: Survival of human Raji cells at 100 uM under deem light after 96 hrs by MTT assay relative to control; type: functional; details: read-out: Survival
[13] = Photohemolysis in human RBC at 375 nM under exposure to light for 10 mins; type: ADME, cell-based, Erythrocyte; details: human red blood cells, read-out: Activity
K562 [14] = test: Survival of human K562 cells at 100 uM under deem light after 96 hrs by MTT assay relative to control; type: functional; details: K562, 96 h, read-out: Survival
[15] = Survival of human H209 cells at 100 uM under deem light after 96 hrs by MTT assay relative to control; type: functional; details: NCI-H209, 96 h, read-out: Survival
Raji [16] = test: Survival of human Raji cells at 10 uM under deem light after 96 hrs by MTT assay relative to control; type: functional; details: read-out: Survival
HeLa [17] = test: Cytotoxicity against human HeLa cells under deem light after 96 hrs by MTT assay; type: functional, cell-based
SiHa [18] = test: Survival of human SIHA cells at 50 uM under deem light after 96 hrs by MTT assay relative to control; type: functional; details: read-out: Survival
NCI-H69 [19] = test: Survival of human H69 cells at 10 uM under deem light after 96 hrs by MTT assay relative to control; type: functional; details: NCI-H69, 96 h, read-out: Survival
[20] = Survival of human MDA-MB cells at 50 uM under deem light after 96 hrs by MTT assay relative to control; type: functional; details: read-out: Survival
[21] = Photohemolysis in human RBC assessed as concentration required to 50% hemolysis under light exposure for 5 mins; type: ADME, cell-based, Erythrocyte; details: human red blood cells, read-out: Activity
K562 [22] = test: Survival of human K562 cells at 10 uM under deem light after 96 hrs by MTT assay relative to control; type: functional; details: K562, 96 h, read-out: Survival
K562 [23] = test: Survival of human K562 cells at 50 uM under deem light after 96 hrs by MTT assay relative to control; type: functional; details: K562, 96 h, read-out: Survival
[24] = Survival of human 2780.9S cells at 50 uM under deem light after 96 hrs by MTT assay relative to control; type: functional; details: read-out: Survival
[25] = Survival of human 2780.9S cells at 10 uM under deem light after 96 hrs by MTT assay relative to control; type: functional; details: read-out: Survival
[26] = Cytotoxicity against human MDA-MB cells under deem light after 96 hrs by MTT assay; type: functional, cell-based
K562 [27] = test: Survival of human K562 cells at 1 uM under deem light after 96 hrs by MTT assay relative to control; type: functional; details: K562, 96 h, read-out: Survival
[28] = Survival of human H209 cells at 0.1 uM under deem light after 96 hrs by MTT assay relative to control; type: functional; details: NCI-H209, 96 h, read-out: Survival
Raji [29] = test: Survival of human Raji cells at 50 uM under deem light after 96 hrs by MTT assay relative to control; type: functional; details: read-out: Survival
[30] = Survival of human MDA-MB cells at 10 uM under deem light after 96 hrs by MTT assay relative to control; type: functional; details: read-out: Survival
NCI-H69 [31] = test: Survival of human H69 cells at 0.1 uM under deem light after 96 hrs by MTT assay relative to control; type: functional; details: NCI-H69, 96 h, read-out: Survival
SiHa [32] = test: Survival of human SIHA cells at 1 uM under deem light after 96 hrs by MTT assay relative to control; type: functional; details: read-out: Survival
NCI-H69 [33] = test: Survival of human H69 cells at 100 uM under deem light after 96 hrs by MTT assay relative to control; type: functional; details: NCI-H69, 96 h, read-out: Survival
K562 [34] = test: Cytotoxicity against human K562 cells under deem light after 96 hrs by MTT assay; type: functional, cell-based; details: K562, 96 h
HeLa [35] = test: Survival of human HeLa cells at 10 uM under deem light after 96 hrs by MTT assay relative to control; type: functional; details: read-out: Survival
NCI-H69 [36] = test: Survival of human H69 cells at 50 uM under deem light after 96 hrs by MTT assay relative to control; type: functional; details: NCI-H69, 96 h, read-out: Survival
[37] = Survival of human 2780.9S cells at 1 uM under deem light after 96 hrs by MTT assay relative to control; type: functional; details: read-out: Survival
Daudi = test: Cytotoxicity against human Daudi cells under deem light after 96 hrs by MTT assay; type: functional, cell-based
HeLa [38] = test: Survival of human HeLa cells at 0.1 uM under deem light after 96 hrs by MTT assay relative to control; type: functional; details: read-out: Survival
[39] = Survival of human H209 cells at 50 uM under deem light after 96 hrs by MTT assay relative to control; type: functional; details: NCI-H209, 96 h, read-out: Survival
HeLa [40] = test: Survival of human HeLa cells at 50 uM under deem light after 96 hrs by MTT assay relative to control; type: functional; details: read-out: Survival
Raji [41] = test: Cytotoxicity against human Raji cells under deem light after 96 hrs by MTT assay; type: functional, cell-based
[42] = Survival of human H209 cells at 10 uM under deem light after 96 hrs by MTT assay relative to control; type: functional; details: NCI-H209, 96 h, read-out: Survival
[43] = Cytotoxicity against human 2780.9S cells under deem light after 96 hrs by MTT assay; type: functional, cell-based
[44] = Survival of human MDA-MB cells at 1 uM under deem light after 96 hrs by MTT assay relative to control; type: functional; details: read-out: Survival
[45] = Survival of human 2780.9S cells at 100 uM under deem light after 96 hrs by MTT assay relative to control; type: functional; details: read-out: Survival
NCI-H69 [46] = test: Survival of human H69 cells at 1 uM under deem light after 96 hrs by MTT assay relative to control; type: functional; details: NCI-H69, 96 h, read-out: Survival
HeLa [47] = test: Survival of human HeLa cells at 100 uM under deem light after 96 hrs by MTT assay relative to control; type: functional; details: read-out: Survival
[48] = Survival of human MDA-MB cells at 0.1 uM under deem light after 96 hrs by MTT assay relative to control; type: functional; details: read-out: Survival
SiHa [49] = test: Survival of human SIHA cells at 100 uM under deem light after 96 hrs by MTT assay relative to control; type: functional; details: read-out: Survival
[50] = Survival of human 2780.9S cells at 0.1 uM under deem light after 96 hrs by MTT assay relative to control; type: functional; details: read-out: Survival

Question: What does the source list for `CC1=C(CCC(=O)O)c2cc3nc(cc4[nH]c(cc5[nH]c(cc1n2)c(C)c5C(C)O)c(C)c4C(C)O)C(C)=C3CCC(=O)O` (stereo unspecified) [HAEMAPORPHYRIN]?
Answer: viability at 1 µM [1]: 94%; HC50 at 10 min [2]: 460 nM; viability at 1 µM (HeLa [3]): 103%; viability at 0.1 µM (K562 [4]): 68.7%; viability at 100 µM [5]: 82.8%; IC50 (NCI-H69 [6]): 70 µM; viability at 10 µM (SiHa [7]): 81.6%; IC50 (SiHa [8]): 56 µM; Activity [9]: Non-toxic; viability at 1 µM (Raji [10]): 89.6%; viability at 0.1 µM (Raji [11]): 92.1%; viability at 100 µM (Raji [12]): 17%; hemolysis at 10 min, 0.375 µM [13]: 100%; viability at 100 µM (K562 [14]): 32.1%; viability at 100 µM [15]: 84.6%; viability at 10 µM (Raji [16]): 71.4%; IC50 (HeLa [17]): 71 µM; viability at 50 µM (SiHa [18]): 52.6%; viability at 10 µM (NCI-H69 [19]): 104%; viability at 50 µM [20]: 107%; HC50 at 5 min [21]: 170 nM; viability at 10 µM (K562 [22]): 82.5%; viability at 50 µM (K562 [23]): 55.9%; viability at 50 µM [24]: 81.4%; viability at 10 µM [25]: 75.5%; IC50 [26]: > 100 µM; viability at 1 µM (K562 [27]): 82.7%; viability at 0.1 µM [28]: 91.4%; viability at 50 µM (Raji [29]): 27.6%; viability at 10 µM [30]: 104%; viability at 0.1 µM (NCI-H69 [31]): 92.2%; viability at 1 µM (SiHa [32]): 92.2%; viability at 100 µM (NCI-H69 [33]): 62.6%; IC50 (K562 [34]): 44 µM; viability at 10 µM (HeLa [35]): 113%; viability at 50 µM (NCI-H69 [36]): 82.9%; viability at 1 µM [37]: 82.5%; IC50 (Daudi): 15 µM; viability at 0.1 µM (HeLa [38]): 85.8%; viability at 50 µM [39]: 93.3%; viability at 50 µM (HeLa [40]): 109%; IC50 (Raji [41]): 57 µM; viability at 10 µM [42]: 99.5%; IC50 [43]: > 100 µM; viability at 1 µM [44]: 115%; viability at 100 µM [45]: 43.8%; viability at 1 µM (NCI-H69 [46]): 105%; viability at 100 µM (HeLa [47]): 104%; viability at 0.1 µM [48]: 136%; viability at 100 µM (SiHa [49]): 44.5%; viability at 0.1 µM [50]: 102%
